The compounds below were run on HCV 1b genotype replicon (assay: HCV replicon assay (qRT-PCR or luciferase), genotype 1b). Conditions: Hepatitis C virus, Table 11, qRT-PCR or luciferase assay, read-out: Genotype-1b replicon EC50 Range.
Format: cell-based
Source text: HCV replicon cell lines (kindly provided by R. Bartenschlager) isolated from colonies as described by Lohman et. al. (Lohman et al. (1999) Science 285: 110-113, expressly incorporated by reference in its entirety) and used for all experiments. The HCV replicon has the nucleic acid sequence set forth in EMBL Accession No.: AJ242651, the coding sequence of which is from nucleotides 1801 to 8406.
The coding sequence of the published HCV replicon was synthesized and subsequently assembled in a modified plasmid pBR322 (Promega, Madison, Wis.) using standard molecular biology techniques. One replicon cell line (“SGR 11-7”) stably expresses HCV replicon RNA which consists of (i) the HCV 5′UTR fused to the first 12 amino acids of the capsid protein, (ii) the neomycin phosphotransferase gene (neo), (iii) the IRES from encephalomyocarditis virus (EMCV), and (iv) HCV […] to NSSB genes and the HCV 3′UTR. Another replicon cell line (“Huh-luc/neo-ET”) described by Vrolijk et. al. (Vrolijk et. al. (2003) Journal of Virological Methods 110:201-209, expressly incorporated by reference in its entirety) stably expresses HCV replicon RNA which consists of (i) the HCV 5′UTR fused to the first 12 amino acids of the capsid protein, (ii) the firefly luciferase reporter gene, (iii) the ubiquitin gene, (iv) the neomycin phosphotransferase gene (neo), (v) the IRES from encephalomyocarditis virus (EMCV), and (vi) HCV NS3 to NS5B genes that harbor cell culture adaptive mutations (E1202G, T1280I, K1846T) and the HCV 3′UTR.
These cell lines were maintained at 37° C., 5% CO2, 100% relative humidity in DMEM (Cat#11965-084, Invitrogen), with 10% fetal calf serum (“FCS”, Invitrogen), 1% non-essential amino acids (Invitrogen), 1% of Glutamax (Invitrogen), 1% of 100× penicillin/streptomycin (Cat#15140-122, Invitrogen) and Geneticin (Cat#10131-027, Invitrogen) at 0.75 mg/ml or 0.5 mg/ml for 11-7 and Huh-luc/neo-ET cells, respectively.
EC50 values of single agent compounds and combinations were determined by HCV RNA detection using quantitative RT-PCR, according to the manufacturer's instructions, with a TAQMAN® One-Step RT-PCR Master Mix Reagents Kit (Cat#AB 4309169, Applied Biosystems) on an ABI Model 7500 thermocycler. The TaqMan primers used for detecting and quantifying HCV RNA were obtained from Integrated DNA Technologies. HCV RNA was normalized to GAPDH RNA levels in drug-treated cells, which is detected and quantified using the Human GAPDH Endogenous Control Mix (Applied Biosystems, AB 4310884E). Total cellular RNA is purified from 96-well plates using the RNAqueous 96 kit (Ambion, Cat# AM1812). Chemical agent cytotoxicity is evaluated using an MTS assay according to the manufacturer's directions (Promega).
Since clinical drug resistance often develops in viral infections following single agent therapies, there is a need to assess the additive, antagonistic, or synergistic properties of combination therapies. We used the HCV replicon system to assess the potential use of the compound of the present invention or in combination therapies with Interferon alpha, cyclosporine analogs and inhibitors targeting other HCV proteins. The acute effects of a single or combinations of drugs are studied in the “Huh-luc/neo-ET” replicon with each chemical agent titrated in an X or Y direction in a 6 point two-fold dilution curve centered around the EC50 of each drug. Briefly, replicon cells are seeded at 7,000 cells per well in 90 ul DMEM (without phenol red, Invitrogen Cat.#31053-036) per well with 10% FCS, 1% non-essential amino acids, 1% of Glutamax and 1% of 100× penicillin/streptomycin and incubated overnight at 37° C., 5% CO2, 100% relative humidity. […]

C=C(c1ccc(-c2c[nH]c([C@@H]3CCCN3C(=O)[C@@H](NC(=O)OC)C(C)C)n2)cc1)c1ccc2nc([C@@H]3CCCN3C(=O)[C@@H](NC(=O)OC)C(C)C)[nH]c2c1 [Example 493] and COC(=O)N[C@H](C(=O)N1CCC[C@H]1c1nc(-c2ccc(C#Cc3ccc4[nH]c([C@@H]5CCCN5C(=O)[C@H](NC(=O)OC)C(C)C)nc4c3)cc2)c[nH]1)C(C)C [Example 508] cannot be ordered by EC50: under 1 nM for the first, under 1 nM for the second.

COC(=O)N[C@@H](C)C(=O)N1CCC[C@H]1c1nc2cc(C#Cc3ccc(-c4c[nH]c([C@@H]5CCCN5C(=O)[C@@H](NC(=O)OC)C(C)C)n4)cc3)ccc2[nH]1 [Example 501] and CC[C@H](NC(=O)OC)C(=O)N1CCC[C@H]1c1nc2cc(C#Cc3ccc(-c4c[nH]c([C@@H]5CCCN5C(=O)[C@@H](NC(=O)OC)C(C)C)n4)cc3)ccc2[nH]1 [Example 502] cannot be ordered by EC50: under 1 nM for the first, under 1 nM for the second.

COC(=O)N[C@H](C(=O)N1CCC[C@H]1c1nc(-c2ccc(C#Cc3ccc4[nH]c([C@@H]5CC(=O)CN5C(=O)[C@@H](NC(=O)OC)C(C)C)nc4c3)cc2)c[nH]1)C(C)C [Example 486] and COC(=O)N[C@H](C(=O)N1CCC[C@H]1c1nc(-c2ccc(C#Cc3ccc4[nH]c([C@@H]5CC(F)(F)CN5C(=O)[C@@H](NC(=O)OC)C(C)C)nc4c3)cc2)c[nH]1)C(C)C [Example 519] cannot be ordered by EC50: under 1 nM for the first, under 1 nM for the second.

COC(=O)N[C@@H](C(=O)N1CCC[C@H]1c1nc(-c2ccc(C#Cc3ccc4[nH]c([C@@H]5CCCN5C(=O)[C@H](NC(=O)OC)c5ccccc5)nc4c3)cc2)n[nH]1)c1ccccc1 [Example 442] and COC(=O)N[C@@H](C(=O)N1CCC[C@H]1c1nc(-c2ccc(CCc3ccc4[nH]c([C@@H]5CCCN5C(=O)[C@H](NC(=O)OC)c5ccccc5)nc4c3)cc2)n[nH]1)c1ccccc1 [Example 443] cannot be ordered by EC50: under 1 nM for the first, under 1 nM for the second.

COC(=O)N[C@H](C(=O)N1CCC[C@H]1c1nc(-c2ccc3cc(-c4ccc5[nH]c([C@@H]6CCCN6C(=O)[C@@H](NC(=O)OC)C(C)C)nc5c4)ccc3c2)c[nH]1)C(C)C [Example 459] and COC(=O)N[C@H](C(=O)N1CCC[C@H]1c1nc2cc(-c3ccc4cc(-c5c[nH]c([C@@H]6CCCN6C(=O)[C@@H](NC(=O)OC)[C@@H](C)OC)n5)ccc4c3)ccc2[nH]1)C(C)C [Example 464] cannot be ordered by EC50: under 1 nM for the first, under 1 nM for the second.

COC(=O)N[C@H](C(=O)N1CCC[C@H]1c1nc(-c2ccc3cc(C#Cc4ccc5[nH]c([C@@H]6CCCN6C(=O)[C@@H](NC(=O)OC)C(C)C)nc5c4)ccc3c2)c[nH]1)C(C)C [Example 475] and COC(=O)N[C@H](C(=O)N1CCC[C@H]1c1nc(-c2ccc(C#Cc3ccc4[nH]c([C@@H]5CCCN5C(=O)[C@@H](NC(=O)OC)[C@@H](C)OC)nc4c3)cc2)c[nH]1)C(C)C [Example 505] cannot be ordered by EC50: under 1 nM for the first, under 1 nM for the second.

Compared with COC(=O)N[C@H](C(=O)N1CCC[C@H]1c1nc2cc(C#Cc3ccc(-c4c[nH]c([C@@H]5CCCN5C(=O)OC(C)(C)C)n4)cc3)ccc2[nH]1)C(C)C [Example 510], COC(=O)N[C@H](C(=O)N1CCC[C@H]1c1nc(-c2ccc(C#Cc3ccc4[nH]c([C@@H]5CCCN5C(=O)OC(C)(C)C)nc4c3)cc2)c[nH]1)C(C)C [Example 500] is higher in EC50: under 1 nM for the first, 1 to 10 nM for the second. The first is the more potent here.

COC(=O)N[C@H](C(=O)N1CCC[C@H]1c1nc(-c2ccc(CCc3ccc4nc([C@@H]5CCCN5C(=O)[C@@H](NC(=O)OC)C(C)C)[nH]c4c3)s2)c[nH]1)C(C)C [Example 454] and COC(=O)N[C@H](C(=O)N1CCC[C@H]1c1nc(-c2ccc(C#Cc3cc(F)c4[nH]c([C@@H]5CCCN5C(=O)[C@@H](NC(=O)OC)C(C)C)nc4c3)cc2)c[nH]1)C(C)C [Example 483] cannot be ordered by EC50: under 1 nM for the first, under 1 nM for the second.

COC(=O)N[C@H](C(=O)N1CCC[C@H]1c1ncc(-c2ccc(C#Cc3ccc4nc([C@@H]5CCCN5C(=O)[C@@H](NC(=O)OC)C(C)C)[nH]c4c3)cc2)[nH]1)C(C)C [Example 515] and COC(=O)N[C@H](C(=O)N1CCC[C@H]1c1ncc(-c2ccc(C#Cc3ccc4nc([C@@H]5C[C@@H](F)CN5C(=O)[C@@H](NC(=O)OC)C(C)C)[nH]c4c3)cc2)[nH]1)C(C)C [Example 540] cannot be ordered by EC50: under 1 nM for the first, under 1 nM for the second.

COC(=O)N[C@H](C(=O)N1CCC[C@H]1c1nc(-c2ccc(C#Cc3ccc4[nH]c([C@@H]5CCCN5C(=O)[C@@H](NC(=O)OC)[C@@H](C)OC)nc4c3)cc2)c[nH]1)[C@@H](C)OC [Example 473] and CCC[C@H](NC(=O)OC)C(=O)N1CCC[C@H]1c1nc2cc(C#Cc3ccc(-c4c[nH]c([C@@H]5CCCN5C(=O)[C@@H](NC(=O)OC)C(C)C)n4)cc3)ccc2[nH]1 [Example 503] cannot be ordered by EC50: under 1 nM for the first, under 1 nM for the second.

COC(=O)N[C@H](C(=O)N1CCC[C@H]1c1ncc(-c2ccc([C@@H]3C[C@H]3c3ccc4nc([C@@H]5CCCN5C(=O)[C@@H](NC(=O)OC)C(C)C)[nH]c4c3)cc2)[nH]1)C(C)C [Example 497-b] and COC(=O)N[C@H](C(=O)N1CCC[C@H]1c1nc2cc(C#Cc3ccc(-c4c[nH]c([C@@H]5CCCN5C(=O)[C@@H](NC(C)=O)C(C)C)n4)cc3)ccc2[nH]1)C(C)C [Example 511] cannot be ordered by EC50: under 1 nM for the first, under 1 nM for the second.

COC(=O)N[C@H](C(=O)N1CCC[C@H]1c1nc(-c2ccc(C#Cc3ccc4[nH]c([C@@H]5CC6(CC6)CN5C(=O)[C@@H](NC(=O)OC)C(C)C)nc4c3)cc2)c[nH]1)C(C)C [Example 521] and COC(=O)N[C@H](C(=O)N1CCC[C@H]1c1nc(-c2ccc(C#Cc3ccc4[nH]c([C@@H]5CCCN5C(=O)[C@@H](NC(=O)OC)C(C)C)nc4c3)cc2)c[nH]1)c1ccccc1 [Example 514] cannot be ordered by EC50: under 1 nM for the first, under 1 nM for the second.

COC(=O)N[C@H](C(=O)N1CCC[C@H]1c1ncc(-c2ccc(C#Cc3ccc4nc([C@]5(Cc6ccccc6)CCCN5C(=O)[C@@H](NC(=O)OC)C(C)C)[nH]c4c3)cc2)[nH]1)C(C)C [Example 536] and COC(=O)N[C@@H](C(=O)N1CCC[C@H]1c1nc2ccc(CCc3ccc(-c4cnc([C@@H]5CCCN5C(=O)[C@H](NC(=O)OC)c5ccccc5)o4)cc3)cc2[nH]1)c1ccccc1 [Example 534] cannot be ordered by EC50: under 1 nM for the first, under 1 nM for the second.

Same assay, conditions: Hepatitis C virus, Table 12, numeric values, read-out: 1b EC50

In order of falling EC50:
1. COC(=O)N[C@H](C(=O)N1C[C@@](C)(F)C[C@H]1c1ncc(-c2ccc(C#Cc3ccc4nc([C@@H]5C[C@@]6(CCCO6)CN5C(=O)[C@@H](NC(=O)OC)C(C)C)[nH]c4c3)cc2)[nH]1)C(C)C [Example 636]  0.02 nM
2. COC(=O)N[C@H](C(=O)N1C[C@@H](C)C[C@H]1c1ncc(-c2ccc(C#Cc3ccc4nc([C@@H]5C[C@@]6(CCCO6)CN5C(=O)[C@@H](NC(=O)OC)C(C)C)[nH]c4c3)cc2)[nH]1)C(C)C [Example 559]  0.014 nM
3. COC(=O)N[C@H](C(=O)N1CCC[C@H]1c1ncc(-c2ccc(C#Cc3ccc4nc([C@@H]5C[C@@]6(CC=CCO6)CN5C(=O)[C@@H](NC(=O)OC)C(C)C)[nH]c4c3)cc2)[nH]1)C(C)C [Example 563]  0.012 nM
4. COC(=O)N[C@H](C(=O)N1CCC[C@H]1c1ncc(-c2ccc3cc(-c4ccc5nc([C@@H]6C[C@H](C7CC7)CN6C(=O)[C@@H](NC(=O)OC)C(C)C)[nH]c5c4)ccc3c2)[nH]1)C(C)C [Example 642]  0.007 nM
5. COC(=O)N[C@H](C(=O)N1CC2(CC2)C[C@H]1c1ncc(-c2ccc(C#Cc3ccc4nc([C@@H]5CC6(CC6)CN5C(=O)[C@H](NC(=O)OC)c5ccccc5)[nH]c4c3)cc2)[nH]1)C(C)C [Example 578]  0.006 nM

Same assay, conditions: Hepatitis C virus, Table 12, range class, read-out: 1b EC50 Range

Work on COC(=O)N[C@H](C(=O)N1CC(C)(C)C[C@H]1c1ncc(-c2ccc(C#Cc3ccc4nc([C@@H]5C[C@@]6(CCCO6)CN5C(=O)[C@@H](NC(=O)OC)C(C)C)[nH]c4c3)cc2)[nH]1)C(C)C [Example 560] yielded an EC50 of under 1 nM.

Reference: patent US9765087B2, “Benzimidazole derivatives” (ENANTA PHARMACEUTICALS, INC., priority 2009, dated 2017)
